Measurements as given in patent US20050234046A1 (Kalypsys, Inc., priority 2004, published 2005).

Assays:
Assay in all cases: Transient transfection (transactivation) assay in CV-1 cells, GAL4-PPAR chimera, luciferase reporter
Type in all cases: cell-based
PPAR gamma = molecular target: T1, PPAR gamma (Homo sapiens, UniProt P37231)
T1 construct: expressed in transfected cells; host or cells: CV-1 cells
T1 sequence (P37231 238-503 limits assumed): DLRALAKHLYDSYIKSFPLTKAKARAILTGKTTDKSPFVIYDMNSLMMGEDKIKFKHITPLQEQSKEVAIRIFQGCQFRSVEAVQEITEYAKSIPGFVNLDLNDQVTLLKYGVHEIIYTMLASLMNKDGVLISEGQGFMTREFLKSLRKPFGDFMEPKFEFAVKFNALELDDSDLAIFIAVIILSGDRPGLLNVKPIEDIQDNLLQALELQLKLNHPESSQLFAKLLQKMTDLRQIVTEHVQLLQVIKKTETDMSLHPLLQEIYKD

PPAR alpha = molecular target: T2, PPAR alpha (Homo sapiens, UniProt Q07869)
T2 construct: expressed in transfected cells; host or cells: CV-1 cells
T2 sequence (Q07869 239-466 limits assumed): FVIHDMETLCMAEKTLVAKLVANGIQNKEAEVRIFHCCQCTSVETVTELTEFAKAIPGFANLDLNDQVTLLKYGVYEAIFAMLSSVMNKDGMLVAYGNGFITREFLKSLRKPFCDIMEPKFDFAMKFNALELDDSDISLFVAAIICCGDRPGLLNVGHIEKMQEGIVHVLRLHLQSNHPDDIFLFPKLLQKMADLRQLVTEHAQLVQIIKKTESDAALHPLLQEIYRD
Outline: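 EC50 and efficacy come from a luciferase read-out after 20-24 hours of compound exposure (vehicle 1% DMSO) in transiently transfected CV-1 cells. These cells express a GAL4-PPAR ligand-binding-domain chimera plus a reporter with four or five GAL4 binding sites, and are kept in phenol-red free DME with 5% delipidated calf serum.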

PPAR delta = molecular target: T3, PPAR delta (Homo sapiens, UniProt Q03181)
T3 construct: expressed in transfected cells; host or cells: CV-1 cells
T3 sequence (Q03181 211-439 limits assumed): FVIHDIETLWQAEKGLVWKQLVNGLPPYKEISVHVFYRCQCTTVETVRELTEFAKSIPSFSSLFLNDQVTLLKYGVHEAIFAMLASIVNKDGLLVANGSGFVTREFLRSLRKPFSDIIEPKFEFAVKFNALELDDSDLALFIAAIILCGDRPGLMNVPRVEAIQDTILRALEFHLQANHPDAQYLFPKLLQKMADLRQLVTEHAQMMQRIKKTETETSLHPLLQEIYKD

In the case of `Cc1ccc(CC(=O)O)cc1S(=O)(=O)N1CCN(c2cnccn2)CC1` [Example 163, [4-Methyl-3-(2,3,5,6-tetrahydro-[1,2]bipyrazinyl-4-sulfonyl)-phenyl]-acetic acid], the EC50 (PPAR gamma) is reported as over 100 µM, the EC50 (PPAR alpha) is reported as over 100 µM and the EC50 (PPAR delta) is reported as over 100 µM.
Compound `Cc1ccc(CC(=O)O)cc1S(=O)(=O)N1CCN(C(c2ccccc2)c2ccc(Cl)cc2)CC1` (stereo not drawn) [Example 164] has an EC50 (PPAR gamma) of 5 to 100 µM, an EC50 (PPAR alpha) of over 100 µM and an EC50 (PPAR delta) of 5 to 100 µM.
For `Cc1ccc(CC(=O)O)cc1S(=O)(=O)N1CCN(c2ccc(Cl)c(Cl)c2)CC1` [Example 165, {3-[4-(3,4-Dichloro-phenyl)-piperazine-1-sulfonyl]-4-methyl-phenyl}-acetic acid], the EC50 (PPAR gamma) was 5 to 100 µM, the EC50 (PPAR alpha) was over 100 µM and the EC50 (PPAR delta) was under 5 µM.
For `Cc1cc(CC(=O)O)cc(S(=O)(=O)N2CCN(c3ccc(Cl)c(Cl)c3)CC2)c1` [Example 166, {3-[4-(3,4-Dichloro-phenyl)-piperazine-1-sulfonyl]-5-methyl-phenyl}-acetic acid], the EC50 (PPAR gamma) was 5 to 100 µM, the EC50 (PPAR alpha) was 5 to 100 µM and the EC50 (PPAR delta) was under 5 µM.
`Cc1cc(CC(=O)O)cc(S(=O)(=O)N2CCN(c3ccc(Cl)cc3)CC2)c1` [Example 167, {3-[4-(4-Chloro-phenyl)-piperazine-1-sulfonyl]-5-methyl-phenyl}-acetic acid] gave an EC50 (PPAR gamma) of 5 to 100 µM, an EC50 (PPAR alpha) of over 100 µM and an EC50 (PPAR delta) of under 5 µM.
`Cc1cccc(N2CCN(S(=O)(=O)c3cc(C)cc(CC(=O)O)c3)CC2C)c1` (stereo not drawn) [Example 168, [3-Methyl-5-(3-methyl-4-m-tolyl-piperazine-1-sulfonyl)-phenyl]-acetic acid] gave an EC50 (PPAR gamma) of 5 to 100 µM, an EC50 (PPAR alpha) of over 100 µM and an EC50 (PPAR delta) of 5 to 100 µM.
With `Cc1cc(CC(=O)O)cc(S(=O)(=O)N2CCN(c3ccc(C)c(C)c3)CC2)c1` [Example 169, {3-[4-(3,4-Dimethyl-phenyl)-piperazine-1-sulfonyl]-5-methyl-phenyl}-acetic acid] the EC50 (PPAR gamma) was 5 to 100 µM, the EC50 (PPAR alpha) was over 100 µM and the EC50 (PPAR delta) was 5 to 100 µM.
`Cc1cc(CC(=O)O)cc(S(=O)(=O)N2CCN(c3ccc(F)cc3F)CC2)c1` [Example 170] was tested, and the EC50 (PPAR gamma) was over 100 µM, the EC50 (PPAR alpha) was over 100 µM and the EC50 (PPAR delta) was 5 to 100 µM.
In the case of `Cc1cc(CC(=O)O)cc(S(=O)(=O)N2CCN(c3cccc(Cl)c3)CC2)c1` [Example 171, {3-[4-(3-Chloro-phenyl)-piperazine-1-sulfonyl]-5-methyl-phenyl}-acetic acid], the EC50 (PPAR gamma) is reported as 5 to 100 µM, the EC50 (PPAR alpha) is reported as over 100 µM and the EC50 (PPAR delta) is reported as 5 to 100 µM.
`Cc1cc(CC(=O)O)cc(S(=O)(=O)N2CCN(c3ccccc3F)CC2)c1` [Example 172, {3-[4-(2-Fluoro-phenyl)-piperazine-1-sulfonyl]-5-methyl-phenyl}-acetic acid] gave an EC50 (PPAR gamma) of over 100 µM, an EC50 (PPAR alpha) of over 100 µM and an EC50 (PPAR delta) of over 100 µM.
`Cc1cc(CC(=O)O)cc(S(=O)(=O)N2CCN(c3ccc(F)cc3)CC2)c1` [Example 173, {3-[4-(4-Fluoro-phenyl)-piperazine-1-sulfonyl]-5-methyl-phenyl}-acetic acid] was tested, and the EC50 (PPAR gamma) was over 100 µM, the EC50 (PPAR alpha) was over 100 µM and the EC50 (PPAR delta) was 5 to 100 µM.
In the case of `Cc1cc(CC(=O)O)cc(S(=O)(=O)N2CCN(c3ccccc3)CC2)c1` [Example 174, [3-Methyl-5-(4-phenyl-piperazine-1-sulfonyl)-phenyl]-acetic acid], the EC50 (PPAR gamma) is reported as over 100 µM, the EC50 (PPAR alpha) is reported as over 100 µM and the EC50 (PPAR delta) is reported as over 100 µM.
`Cc1ccc(S(=O)(=O)N2CCN(c3ccc(Cl)c(Cl)c3)CC2)cc1CC(=O)O` [Example 175, {5-[4-(3,4-Dichloro-phenyl)-piperazine-1-sulfonyl]-2-methyl-phenyl}-acetic acid] gave an EC50 (PPAR gamma) of 5 to 100 µM, an EC50 (PPAR alpha) of 5 to 100 µM and an EC50 (PPAR delta) of under 5 µM.
`Cc1ccc(S(=O)(=O)N2CCN(c3ccc(Cl)cc3)CC2)cc1CC(=O)O` [Example 176, {5-[4-(4-Chloro-phenyl)-piperazine-1-sulfonyl]-2-methyl-phenyl}-acetic acid] gave an EC50 (PPAR gamma) of 5 to 100 µM, an EC50 (PPAR alpha) of over 100 µM and an EC50 (PPAR delta) of under 5 µM.
`Cc1cccc(N2CCN(S(=O)(=O)c3ccc(C)c(CC(=O)O)c3)CC2C)c1` (stereo not drawn) [Example 177, [2-Methyl-5-(3-methyl-4-m-tolyl-piperazine-1-sulfonyl)-phenyl]-acetic acid] gave an EC50 (PPAR gamma) of 5 to 100 µM, an EC50 (PPAR alpha) of over 100 µM and an EC50 (PPAR delta) of 5 to 100 µM.
`Cc1ccc(S(=O)(=O)N2CCN(CCc3ccccc3)CC2)cc1CC(=O)O` [Example 178, [2-Methyl-5-(4-phenethyl-piperazine-1-sulfonyl)-phenyl]-acetic acid] gave an EC50 (PPAR gamma) of 5 to 100 µM, an EC50 (PPAR alpha) of over 100 µM and an EC50 (PPAR delta) of 5 to 100 µM.
